From ChEMBL document CHEMBL4428040, “8-Hydroxyquinolines in medicinal chemistry: A structural perspective” (Eur J Med Chem, 2016)

Tests used:
[1] = system: HeLa; test: Cytotoxicity against human HeLa cells assessed as reduction in cell viability after 48 hrs by resazurin assay; format: functional, cell-based
[2] = system: HeLa; test: Ionophoric activity in human HeLa cells assessed as intracellular metal accumulation at 11.3 uM cotreated with Ni incubated for 6 hrs by ICP-AES analysis relative to control; format: functional
[3] = system: HeLa; test: Cytotoxicity against human HeLa cells assessed as reduction in cell viability at 1:1 CuCl2:compound molar ratio after 48 hrs by resazurin assay; format: functional, cell-based
[4] = system: HeLa; test: Ionophoric activity in human HeLa cells assessed as intracellular metal accumulation at 11.3 uM cotreated with Co incubated for 6 hrs by ICP-AES analysis relative to control; format: functional
[5] = system: HeLa; test: Ionophoric activity in human HeLa cells assessed as intracellular metal accumulation at 4.2 uM cotreated with Fe incubated for 6 hrs by ICP-AES analysis relative to control; format: functional
[6] = system: HeLa; test: Ionophoric activity in human HeLa cells assessed as intracellular metal accumulation at 1.8 uM cotreated with Cu incubated for 6 hrs by ICP-AES analysis relative to control; format: functional
[7] = system: HeLa; test: Growth inhibition of human HeLa cells; format: functional, cell-based
[8] = system: HeLa; test: Growth inhibition of human HeLa cells in presence of copper; format: functional, cell-based
[9] = system: HeLa; test: Potency index, ratio of CQ IC50 to compound IC50 for human HeLa cells; format: functional

IC50 [7] [nM]	IC50 [8] [nM]	SMILES	IC50 [1] [nM]	fold change (FC) [2]	IC50 [3] [nM]	fold change (FC) [4]	fold change (FC) [5]	fold change (FC) [6]	Ratio IC50 [9]
		Oc1cccc2cccnc12 [OXYQUINOLINE]	13500						
		Oc1cccc2ccc(CCc3ccc4cccc(O)c4n3)nc12	23700	2.1	1800	2.1	1.8	13.7	
710	60	Cc1ccc(OS(=O)(=O)N2CCN(Cc3cc([N+](=O)[O-])c4cccnc4c3O)CC2)cc1							26
